The subject of one data set is Ps. aeruginosa, 32104. Nature of the data set: Minimum Inhibitory Concentration (MIC), standard method of The Japan Society of Chemotherapy. The settings on record: Pseudomonas aeruginosa, 32104, read-out: Minimum Inhibitory Concentration (MIC).
In a further data set the test system is various microorganisms. As to the kind of experiment: antimicrobial activity compared with racemic Ofloxacin (summary). In kind it is cell-based. The settings on record: relative to (±)-compound.
In a further data set the test system is S. aureaus, Smith. Nature of the data set: Minimum Inhibitory Concentration (MIC), standard method of The Japan Society of Chemotherapy. Particulars: read-out: Minimum Inhibitory Concentration (MIC).
The subject of another data set is Ps. maltophilia, IID1275. The description is as above. The settings on record: Stenotrophomonas maltophilia, IID1275, read-out: Minimum Inhibitory Concentration (MIC).
Another data set relates to Ser. marcescens, 10100. The data set is described as above. The settings on record: Serratia marcescens, 10100, read-out: Minimum Inhibitory Concentration (MIC).
For another data set, the system named is Str. pyogenes, G-36. The description is as above. Particulars: Streptococcus pyogenes, G36, read-out: Minimum Inhibitory Concentration (MIC).
A further data set has as its system male mice. Nature of the data set: acute intravenous toxicity in male mice. The settings on record: for Day after treatment 1 (number of mice dead) / Day after treatment 2 (number of mice dead) / Day after treatment 3 (number of mice dead) / Mortality: i.v.; for Day after treatment 1 (number of mice dead) / Day after treatment 2 (number of mice dead) / Day after treatment 3 (number of mice dead): 5 male mice; for Day after treatment 1 (number of mice dead): day 1; for Day after treatment 2 (number of mice dead): day 2; for Day after treatment 3 (number of mice dead): day 3; for Mortality: male mice; for acute toxicity (LD50) compared with racemate, in words: mice, intravenous, relative to (±)-compound.

The subject of the next data set is S. aureaus, 209P. As to the kind of experiment: Minimum Inhibitory Concentration (MIC), standard method of The Japan Society of Chemotherapy. The settings on record: read-out: Minimum Inhibitory Concentration (MIC).
For a further data set, the system named is K. pneumoniae, Type 2. Described as above. Particulars: Klebsiella pneumoniae, TYPE2, read-out: Minimum Inhibitory Concentration (MIC).
For the next data set, the system named is E. coli, NIHJ. The description is as above. The settings on record: Escherichia coli, read-out: Minimum Inhibitory Concentration (MIC).
In a further data set the test system is Ps. aeruginosa, 32121. Described as above. Particulars: Pseudomonas aeruginosa, 32121, read-out: Minimum Inhibitory Concentration (MIC).
A short description of the next data set: in vivo. Particulars: mouse, iv.

The structures appear in SMILES notation. ≈ marks a conversion by molar mass, not a printed value. A value given as a limit tells only on which side of the number the result lay.

Excerpt for E. coli, NIHJ: (§1) The test method was in accordance with the standard method specified by The Japan Society of Chemotherapy.
Excerpt for K. pneumoniae, Type 2: as §1
Excerpt for Ps. aeruginosa, 32104: as §1
Excerpt for Ps. aeruginosa, 32121: as §1
Excerpt for Ps. maltophilia, IID1275: as §1
Excerpt for S. aureaus, 209P: as §1
Excerpt for S. aureaus, Smith: as §1
Excerpt for Ser. marcescens, 10100: as §1
Excerpt for Str. pyogenes, G-36: as §1

As for `C[C@H]1COc2c(N3CCN(C)CC3)c(F)cc3c(=O)c(C(=O)O)cn1c23` [S(-)-Ofloxacin, S-(-)-9-Fluoro-3-Methyl-10-(4-Methyl-1-Piperazinyl)-7-oxo-2,3-Dihydro-7H-Pyrido[1,2,3-de][1,4]Benzoxazine-6-Carboxylic Acid], the MIC is 0.39 µg/mL (≈ 1.08 µM) with Ps. aeruginosa, 32104; 0.1 µg/mL (≈ 0.277 µM) in the data set on S. aureaus, Smith; 0.39 µg/mL (≈ 1.08 µM) with Ps. maltophilia, IID1275; below 0.1 µg/mL with Ser. marcescens, 10100; 0.78 µg/mL (≈ 2.16 µM) with Str. pyogenes, G-36; 0.2 µg/mL (≈ 0.553 µM) in the data set on S. aureaus, 209P. Further, the MIC in the data set with K. pneumoniae, Type 2 was below 0.1 µg/mL; in the data set with E. coli, NIHJ, below 0.1 µg/mL; in the data set with Ps. aeruginosa, 32121 it was 0.1 µg/mL (≈ 0.277 µM). Further, the “antimicrobial activity, times higher than that of the (±)-compound” value in the data set with various microorganisms is on record as “about 2 times”. Moreover, the LD50 in the data set on male mice (i.v. in mice) was found to be 244 mg/kg. In addition, the “Day after treatment 1 (number of mice dead)” value was found to be 0 in the data set on male mice (100 mg/kg), 0 in the data set with male mice (200 mg/kg) and 5 in the data set on male mice (400 mg/kg). For the same compound, the “Day after treatment 2 (number of mice dead)” value in the data set on male mice (100 mg/kg), in the data set on male mice (200 mg/kg) and in the data set with male mice (400 mg/kg) was 0 in each case. Moreover, the “Day after treatment 3 (number of mice dead)” value in the data set on male mice (100 mg/kg), with male mice (200 mg/kg) and with male mice (400 mg/kg) was 0 in each case. Further, the results for the Mortality with male mice (100 mg/kg), in the data set on male mice (200 mg/kg) and in the data set with male mice (400 mg/kg) were 0/5, 0/5 and 5/5, respectively. The “acute toxicity (LD50) compared with racemate, in words” value with male mice was “weaker”.
For the compound `CCN1CCN(c2c(F)cc3c(=O)c(C(=O)O)cn4c3c2OC[C@@H]4C)CC1` [Example 17, (S)-(-)-9-Fluoro-3-Methyl-10-(4-Ethyl-1-Piperazinyl)-7-Oxo-2,3-Dihydro-7H-Pyrido[1,2,3-de][1,4]Benzoxazine-6-Carboxylic Acid], the MIC in the data set on Ps. aeruginosa, 32104 is 0.39 µg/mL (≈ 1.04 µM); in the data set on S. aureaus, Smith, below 0.1 µg/mL; in the data set on Ps. maltophilia, IID1275 it was 0.1 µg/mL (≈ 0.266 µM); with Ser. marcescens, 10100, below 0.1 µg/mL; in the data set on Str. pyogenes, G-36 it was 1.56 µg/mL (≈ 4.16 µM); in the data set with S. aureaus, 209P it was 0.1 µg/mL (≈ 0.266 µM). Besides, the MIC was below 0.1 µg/mL in the data set on K. pneumoniae, Type 2; below 0.1 µg/mL in the data set on E. coli, NIHJ; 0.1 µg/mL (≈ 0.266 µM) in the data set with Ps. aeruginosa, 32121.
For `CC1COc2c(N3CCN(C)CC3)c(F)cc3c(=O)c(C(=O)O)cn1c23` (racemic) [Racemic Ofloxacin, (±)-9-fluoro-3-methyl-10-(4-methyl-1-piperazinyl)-7-oxo-2,3-dihydro-7H-pyrido[1,2,3-de][1,4]-benzoxazine-6-carboxylic acid, reference compound], the MIC came out at 0.78 µg/mL (≈ 2.16 µM) with Ps. aeruginosa, 32104; 0.2 µg/mL (≈ 0.553 µM) in the data set with S. aureaus, Smith; 0.78 µg/mL (≈ 2.16 µM) in the data set on Ps. maltophilia, IID1275; 0.1 µg/mL (≈ 0.277 µM) with Ser. marcescens, 10100; 1.56 µg/mL (≈ 4.32 µM) in the data set with Str. pyogenes, G-36; 0.39 µg/mL (≈ 1.08 µM) in the data set on S. aureaus, 209P. In addition, the MIC with K. pneumoniae, Type 2 is 0.1 µg/mL (≈ 0.277 µM); with E. coli, NIHJ, below 0.1 µg/mL; in the data set on Ps. aeruginosa, 32121, 0.2 µg/mL (≈ 0.553 µM). The compound further displayed an LD50 in “in vivo” of 203 mg/kg. The “Day after treatment 1 (number of mice dead)” value with male mice (100 mg/kg) is listed as 0; with male mice (200 mg/kg) it was 2; in the data set on male mice (400 mg/kg) it was 5. The “Day after treatment 2 (number of mice dead)” value with male mice (100 mg/kg), in the data set with male mice (200 mg/kg) and in the data set on male mice (400 mg/kg) was 0 each time. Besides, the “Day after treatment 3 (number of mice dead)” value with male mice (100 mg/kg), in the data set with male mice (200 mg/kg) and in the data set on male mice (400 mg/kg) was 0 each time. Also, the Mortality in the data set on male mice (100 mg/kg) was 0/5; in the data set with male mice (200 mg/kg) it was 2/5; with male mice (400 mg/kg), 5/5.
Regarding `C[C@@H]1COc2c(N3CCN(C)CC3)c(F)cc3c(=O)c(C(=O)O)cn1c23` [R(+)-Ofloxacin], the MIC is 12.5 µg/mL (≈ 34.6 µM) in the data set with Ps. aeruginosa, 32104; 6.25 µg/mL (≈ 17.3 µM) with S. aureaus, Smith; 12.5 µg/mL (≈ 34.6 µM) in the data set on Ps. maltophilia, IID1275; 1.56 µg/mL (≈ 4.32 µM) with Ser. marcescens, 10100; below 100 µg/mL with Str. pyogenes, G-36; 25 µg/mL (≈ 69.2 µM) in the data set with S. aureaus, 209P. The MIC stood at 1.56 µg/mL (≈ 4.32 µM) with K. pneumoniae, Type 2; 0.39 µg/mL (≈ 1.08 µM) in the data set on E. coli, NIHJ; 6.25 µg/mL (≈ 17.3 µM) in the data set on Ps. aeruginosa, 32121. Besides, the “Day after treatment 1 (number of mice dead)” value is reported as 0 with male mice (100 mg/kg), 3 with male mice (200 mg/kg) and 5 in the data set on male mice (400 mg/kg). Moreover, the “Day after treatment 2 (number of mice dead)” value with male mice (100 mg/kg), in the data set on male mice (200 mg/kg) and in the data set on male mice (400 mg/kg) was 0 each time. The “Day after treatment 3 (number of mice dead)” value in the data set with male mice (100 mg/kg), in the data set on male mice (200 mg/kg) and with male mice (400 mg/kg) was 0 throughout. The Mortality in the data set with male mice (100 mg/kg) is given as 0/5; with male mice (200 mg/kg) it was 3/5; with male mice (400 mg/kg) it was 5/5. For the same compound, the “acute toxicity (LD50) compared with racemate, in words” value with male mice is recorded as “substantially equal to that of the (±)-compound”.

(Values after patent US5142046A, “Optically active pyridobenzoxazine derivatives and intermediates thereof” (Daiichi Pharmaceutical Co., Ltd., priority 1985, dated 1992).)
